In ChEMBL document CHEMBL1150588, “New nitrogenous eudesmane-type compounds isolated from the Caribbean sponge Axinyssa ambrosia” (J Nat Prod, 2002):

What was measured:
[1] = tested on: Madracis mirabilis; test: Toxicity against Madracis mirabilis assessed as retraction recovery at 10 ug/ml after 48 hrs; conditions: in vivo
[2] = tested on: Madracis mirabilis; test: Toxicity against Madracis mirabilis assessed as retracted polyps at 10 ug/ml after 24 hrs; conditions: in vivo
[3] = tested on: HT-29; test: Cytotoxicity against human HT-29 cells; format: functional, cell-based
[4] = tested on: Madracis mirabilis; test: Toxicity against Madracis mirabilis polyps assessed as mortality at 10 ug/ml after 2 hrs; conditions: in vivo
[5] = tested on: P388; test: Cytotoxicity against mouse P388 cells; format: functional, cell-based
[6] = Toxicity against Madracis mirabilis polyps assessed as mortality after 2 hrs; format: organism-based; conditions: in vivo; read-out: LD50
[7] = tested on: Madracis mirabilis; test: Toxicity against Madracis mirabilis polyps assessed as mortality at 7.75 ug/ml after 2 hrs; conditions: in vivo
[8] = tested on: A549; test: Cytotoxicity against human A549 cells; format: functional, cell-based

| SMILES | Activity [1] [%] | Activity [2] | IC50 [3] [µg/mL] | Activity [4] | IC50 [5] [µg/mL] | LC50 at 2 h [6] [µg/mL] | Activity [7] | IC50 [8] [µg/mL] |
| --- | --- | --- | --- | --- | --- | --- | --- | --- |
| C=C(C)[C@H]1CC[C@@]2(C)CCC[C@@](C)(N)[C@@H]2C1 (relative stereo) | 40 | Active |  |  |  |  |  |  |
| C=C(C)[C@H]1CC[C@@]2(C)CCC[C@@](C)(N)[C@@H]2C1.Cl (relative stereo) |  |  | 2 | Toxic | 2 | 9.4 | Non-toxic | 2 |
